Data on six molecules can be found in patent US9580400B2, “Cannabinergic nitrate esters and related analogs” (Northeastern University, priority 2013, dated 2017).

A word on the EC50: it is the midpoint of the concentration-response curve. Higher therefore signals a need for much substance.

One experiment deals with T1, rCB1 (Rattus norvegicus, UniProt P20272).
T1 construct: tissue Pel-Freeze Biologicals; host or cells: rat brain membranes
The experiment can be described thus: rCB1 competition-equilibrium binding using [3H]CP-55,940, rat brain membranes. The conditions noted are these: Ki calculated from IC50, read-out: rCB1 affinity data. The protocol: Frozen rat brains (CB1 source) are obtained from Pel-Freeze Biologicals (Rogers, A K) and stored at −80° C. until use. Membranes are prepared according to the method described in Brain Res 1981, 226, (1-2), 107-18 and adapted as previously reported in J Med Chem 1994, 37, (23), 3867-70 and Life Sci 1995, 56, (23-24), 1957-62; each herein incorporated by reference in its entirety.
(§1) The compounds are tested for their ability to bind to CB1 and CB2 receptors using rat brain or HEK293 cell membranes expressing hCB2 and mCB2 membrane preparations, respectively, as described in J Med Chem 1999, 42, (4), 769-776, J Med Chem 1994, 37, (23), 3867-70 and Life Sci 1995, 56, (23-24), 1957-62 (each herein incorporated by reference in its entirety) via competition-equilibrium binding using [^3H]CP-55,940. The results are analyzed using nonlinear regression to determine the actual IC50 of the ligand (Prizm by GraphPad Software, Inc.) and the Ki values are calculated from the IC50 as described in Biochemical Pharmacology 1973, 22, (23), 3099-3108; herein incorporated by reference in its entirety.

In a further experiment the target is T2, hCB2 (Homo sapiens, UniProt P34972).
T2 construct: expressed in transfected cells; host or cells: HEK293
Briefly: hCB2 competition-equilibrium binding using [3H]CP-55,940, HEK293 cell membranes. The conditions noted are these: HEK293 cell membranes expressing hCB2; Ki calculated from IC50; read-out: hCB2 affinity data. The protocol:
HEK293 cells expressing hCB1, hCB2 or mCB2 receptor are used for membrane preparations according to the method described in J Neurochem 1999, 72, (5), 2032-8, herein incorporated by reference in its entirety. The resulting pellet is resuspended in 10 mM Tris-chloride, pH 7.4 with 5 mM MgCl2 and 2 mM EDTA (TME), and stored at −80° C. for no longer than two months. Protein content is assayed by using the Bio-Rad DC protein assay according to the manufacturer's protocol.
as §1

Another experiment concerns the target T3, human GPR55 receptor (Homo sapiens, UniProt Q9Y2T6).
T3 construct: human GPR55 receptor modified with human vasopressin V2 receptor tail [GPR55(E)]; fused on or other part: C-terminal tail of the human vasopressin V2 receptor (AVPR2), added to strengthen beta-arrestin recruitment; HA tag; Beta-arrestin 2-GFP is co-expressed as the read-out
Briefly: β-arrestin2 translocation assay, GPR55, U2OS cells. Format: cell-based. Here is the method: Test compounds were screened in U2OS cells permanently expressing β-arrestin 2-GFP and human GPR55 receptor modified with human vasopressin V2 receptor tail [GPR55(E)].
β-arrestin2 translocation: For both agonist and antagonist assays, the U2OS cells permanently transfected with β-arrestin 2-GFP and human GPR55(E) were used to trace β-arrestin translocation upon compound treatment. U2OS cells permanently expressing HA-GPR55E and βarr2-GFP were plated into 96 or 384 glass bottomed well plates in clear MEM. For the antagonist assay, compounds in DMSO (final concentration <1%) were added to cells 15 min prior to LPI (agonist) addition and the plates were placed in a 5% 37 degree CO2 incubator (LPI was used at 6 μM). For agonist evaluation only the compound of interest is placed on the wells. Following 40 minute incubation, the cells are fixed by adding paraformaldehyde to 4%. Image acquisition is performed using the Cellomics Arrayscan VTI High Content (HC) cell based imaging system and a ×40 lens. Image analysis is done by using the Batchmode computer software evaluating wavelet information which reflects the number and intensity of fluorescent aggregation (procedures performed at Duke University and adopted from http://www.ncbi.nlm.nih.gov/books/NBK66153/and J. Biol. Chem. 2009; 284(43):29817-27 herein incorporated by reference in its entirety). FIG. 15 describes the biochemical assay for compound 78 wherein the β-arrestin assessment of GPR55 activation is shown.

Where [1] appears, read: antagonist assay, compound added 15 min prior to LPI (6 μM), U2OS cells with β-arrestin 2-GFP and GPR55(E).

T3 sequence (Q9Y2T6 1-292 limits assumed): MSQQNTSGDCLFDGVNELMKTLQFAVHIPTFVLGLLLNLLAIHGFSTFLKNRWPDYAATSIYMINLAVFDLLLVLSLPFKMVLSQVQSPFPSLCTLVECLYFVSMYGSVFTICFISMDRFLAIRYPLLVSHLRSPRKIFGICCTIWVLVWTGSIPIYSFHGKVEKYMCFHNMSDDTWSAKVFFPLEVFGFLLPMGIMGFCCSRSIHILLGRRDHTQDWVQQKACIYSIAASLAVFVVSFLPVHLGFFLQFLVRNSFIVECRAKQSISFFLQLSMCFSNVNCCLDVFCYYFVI
T2 sequence (P34972 whole entry): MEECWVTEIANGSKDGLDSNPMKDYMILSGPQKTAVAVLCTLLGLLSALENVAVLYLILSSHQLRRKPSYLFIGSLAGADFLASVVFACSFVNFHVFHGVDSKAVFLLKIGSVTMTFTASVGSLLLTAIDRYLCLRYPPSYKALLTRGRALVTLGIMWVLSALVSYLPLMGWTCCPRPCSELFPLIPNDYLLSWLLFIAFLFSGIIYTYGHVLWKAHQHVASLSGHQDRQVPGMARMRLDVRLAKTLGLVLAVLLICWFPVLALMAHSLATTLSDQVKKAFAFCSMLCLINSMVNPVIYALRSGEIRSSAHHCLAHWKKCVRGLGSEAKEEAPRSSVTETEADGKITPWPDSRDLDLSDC
T1 sequence (P20272 whole entry): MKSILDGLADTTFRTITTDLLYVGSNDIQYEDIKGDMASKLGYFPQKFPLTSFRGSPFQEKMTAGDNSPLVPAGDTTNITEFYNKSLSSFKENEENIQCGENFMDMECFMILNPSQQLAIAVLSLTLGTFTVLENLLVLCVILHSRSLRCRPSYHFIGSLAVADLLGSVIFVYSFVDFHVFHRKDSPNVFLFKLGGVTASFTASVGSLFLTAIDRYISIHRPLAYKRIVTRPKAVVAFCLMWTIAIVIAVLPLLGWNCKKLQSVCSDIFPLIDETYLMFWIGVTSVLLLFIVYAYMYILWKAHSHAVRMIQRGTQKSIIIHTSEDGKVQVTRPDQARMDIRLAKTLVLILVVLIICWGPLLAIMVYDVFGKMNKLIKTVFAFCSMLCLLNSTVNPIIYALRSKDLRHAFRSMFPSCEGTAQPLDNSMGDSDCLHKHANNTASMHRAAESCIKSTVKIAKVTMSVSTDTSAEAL

`C=C(C)[C@@H]1CCC(C)=C[C@H]1c1c(O)cc(C(C)(C)CCCCO[N+](=O)[O-])cc1O` [compound 78, 5-((1′R,2′R)-2,6-dihydroxy-5′-methyl-2′-(prop-1-en-2-yl)-1′,2′,3′,4′-tetrahydro-[1,1′-biphenyl]-4-yl)-5-methylhexyl nitrate]: the Ki was 60 nM at rCB1 and 35 nM on hCB2. Moreover, on human GPR55 receptor (setting [1]), the EC50 was 2000 to 4000 nM.
For `CC1=CC[C@@H]2[C@@H](C1)c1c(O)cc(C(C)(C)CCCCO[N+](=O)[O-])cc1OC2(C)C` [compound 1, 5-((6aR,1aR)-1-hydroxy-6,6,9-trimethyl-6a,7,10,10a-tetrahydro-6H-benzo[c]chromen-3-yl)-5-methylhexyl nitrate], the Ki at rCB1 is 0.1 nM; at hCB2, 1 nM.
For `CCCCCc1cc(O)c2c(c1)OC(C)(C)[C@@H]1CCC(C)=C[C@@H]21` [Δ^9-THC, Δ^9-tetrahydrocannabinol], on human GPR55 receptor (setting [1]), the “GPR55 EC50” value was “none”.
The same measure, in the same setting: to `C=C(C)[C@@H]1CCC(C)=C[C@H]1c1c(O)cc(O)cc1CCCCC` [abn-cannabidiol, abnormal cannabidiol] belongs “none”; to `C=C(C)[C@@H]1CCC(C)=C[C@H]1c1c(O)cc(CCCCC)cc1O` [cannabidiol], “none”.
Molecule L-α-lysophosphatidylinositol [LPI] displayed a 50% effective concentration (EC50) at human GPR55 receptor (LPI (agonist) line of the antagonist assay table) of 6000 nM.
